In PubChem BioAssay AID1963974 (Molecular Pharmacology Branch, DTP, NCI, 2024):
Several values for one entry are separate records, joined by “and”; a condition that tells them apart may be missing. Equal entries are not always repeated.

System: 648629-189-R-J1-PDC spheroids with HUVEC/MSC, viability
Test: Anticancer human tumor 648629-189-R-J1-PDC patient-derived bladder carcinoma cell line growth inhibition [PI3K]
Conditions: for viability, T/C: stronger effect = lower value; for IC50: curve of compound
Excerpt: Combinatorial screen of targeted agents with the PI3K inhibitors inavolisib, alpelisib, duvelisib, and copanlisib in multi-cell type tumor spheroids
A high-throughput screen of multi-cell type tumor spheroids was designed to identify active combinations of targeted small molecules and PI3K pathway inhibitors. Complex spheroids include a stromal component modeled by human endothelial cells (HUVEC) and fibroblasts modeled by human mesenchymal stem cells (MSCs). The concentration ranges selected for each drug and investigational agent were based upon clinically achievable concentrations if the clinical Cmax of the agent was known.
Compounds. The drugs and investigational agents: inavolisib (NSC800729), alpelisib (NSC765974), duvelisib (NSC772469), copanlisib (NSC816437), ipatasertib (NSC767898), afuresertib (NSC778305), talazoparib (NSC767125), sapanisertib (NSC764658), selumetinib (NSC741078), tovorafenib (DAY101, NSC766906), vemurafenib (NSC761431), ravoxertinib (NSC781343), sotorasib (NSC818433), MRTX1133 (NSC 836407), abemaciclib (NSC 768073), palbociclib (NSC758247), venetoclax (NSC 766270), SY5609 (NSC837396), enzalutamide (NSC755605), and darolutamide (NSC825331), were obtained from the National Cancer Institute (NCI) Developmental Therapeutics Program Chemical Repository. The FDA-approved anticancer drug set is available from the NCI Developmental Therapeutics Program. […] The stock solutions were prepared in dimethyl sulfoxide (DMSO, Sigma-Aldrich, St. Louis, MO, cat. D2650) at 800-fold the tested concentration and stored at -70 degrees C prior to their use. All drugs and investigational agents were tested over a range starting from a high concentration at or near the clinical Cmax and decreasing in half-log increments. If the clinical Cmax for an agent had not been determined, the highest concentration tested was 10 microM.
Cell Culture. All cells were maintained in an incubator at 37 degrees C and 5% CO2 with 95% humidity. The PDC lines were cultured according to standard operating procedures established by the NCI PDMR (https://pdmr.cancer.gov/sops/default.htm). All PDCs were thawed and cultured in Matrigel-coated flasks prepared with a working solution of 1X Ham's F-12 nutrient mix, without supplementation (Invitrogen, Waltham, MA, cat. 11765054), 100 U/mL penicillin-streptomycin (Invitrogen, cat. 15140122), and 2.5% Matrigel (Corning Inc., Corning, NY, cat. 354248) for the first three passages. The 354836-022-R-J1-PDC, 475296-252-R-J1-PDC, and 997726-040-R-J2-PDC lines were cultured in 6A media, which includes advanced DMEM/F-12 (Thermo Fisher Scientific, cat. 12634028), 10 mM HEPES (Thermo Fisher Scientific, cat. 15630080), 1X GlutaMAX supplement (Thermo Fisher Scientific, cat. 35050061), 0.1 mg/mL primocin (InvivoGen, San Diego, CA, cat. ant-pm-2), 10% defined fetal bovine serum, heat inactivated (HyClone Laboratories Inc., Logan, UT, cat. SH30070.03HI), 50% L-WRN conditioned media (ATCC, cat. CRL-3276), 1.25 mM N-Acetyl-L-cysteine (Sigma-Aldrich, cat. A9165), 10 mM nicotinamide (Sigma-Aldrich, cat. N0636), 1X B-27 supplement (Thermo Fisher Scientific, cat. 17504044), 1X N-2 supplement (Thermo Fisher Scientific, cat. 17502048), and 10 microM Y-27632 dihydrochloride (Tocris Bioscience, Bristol, United Kingdom, cat. 1254). The 624824-186-R-J2-PDC line was cultured in 6C/Colon 1B media, which includes all 6A media components plus 50 ng/mL human EGF recombinant protein (Thermo Fisher Scientific, cat. PHG0311). […]
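Note: spheroids exposed to agents for seven days before reading.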
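Throughout, for viability, T/C: percent of vehicle control luminescence where 100% = DMSO treated spheroids.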

| SMILES | viability, T/C (compound 0.0316 µM) | viability, T/C (compound 0.316 µM) | viability, T/C (compound 1 µM) | viability, T/C (compound 3.16 µM) | viability, T/C (compound 10 µM) | IC50 | viability, T/C (compound 0.1 µM) |
| --- | --- | --- | --- | --- | --- | --- | --- |
| C#Cc1c(F)ccc2cc(O)cc(-c3ncc4c(N5CC6CCC(C5)N6)nc(OCC56CCCN5CC(F)C6)nc4c3F)c12 (centres undefined) | 105% [middle of 4 runs] | 111% and 104% (2×) and 105% | 104% [middle of 4 runs] | 107% [middle of 4 runs] | 108% and 105% (2×) and 101% | > 10 µM | – |
| C=CC(=O)N1CCN(c2nc(=O)n(-c3c(C)ccnc3C(C)C)c3nc(-c4c(O)cccc4F)c(F)cc23)C(C)C1 (centres undefined) | 112% [middle of 4 runs] | 110% and 107% (2×) and 100% | 109% [middle of 4 runs] | 105% [middle of 4 runs] | 96% [middle of 4 runs] | > 10 µM | 103% (2×) and 102% and 99.5% |
| Cn1ncc(Cl)c1-c1cc(C(=O)NC(CN)Cc2cccc(F)c2)sc1Cl (centres undefined) | 111% [middle of 4 runs] | 72.9% [middle of 4 runs] | 35.3% [middle of 4 runs] | 25% [middle of 4 runs] | – | 818 nM [middle of 4 runs] | 86.8% [middle of 4 runs] |
